# Reference: a melting point compilation (Tetko et al.; mined from patent text by program, amines drawn as free bases though some values may be those of a salt)
row,Structure (SMILES),melting point
1,CC(C)(C#N)c1cc(CO)cc(Cn2cncn2)c1,111 to 113 °C
2,CCCCCCCC(O)CC(=O)O (stereo not given),55 to 56 °C
3,N#CC(=NO)c1cccnc1,234 to 238 °C
4,CCOC(=O)Cc1ccnc2c(N)cccc12,71 to 77 °C
5,CCOC(=O)Cc1ccc2c(c1)C(c1ccccc1Cl)=NCc1nnc(C)n1-2,157 to 158 °C
6,Cc1ccc(C(=O)O)c(S(C)(=O)=O)c1,174 °C
7,COc1ccc2c(c1)C1(C)CC(=O)N(C)C1(O)CC2 (stereo not given),182 to 186 °C
8,Cc1nc(Cc2ccc([N+](=O)[O-])cc2)cs1,118 to 119 °C
9,COc1cc(COC(C)=O)c(COC(C)=O)cc1OCCCl,79 to 80 °C
10,CCN1CCN(CC/C=C/c2cc3ncc(C#N)c(Nc4cc(OC)c(Cl)cc4Cl)c3cc2OC)CC1,129 to 131 °C
11,CCOC(=O)Cc1nc(-c2ccc(Cl)cc2)oc1Oc1ccc(Cl)cc1,70 to 72 °C
12,O=c1cnn(-c2cc(Cl)c(C(c3ccc(Cl)cc3)c3nc(-c4ccccc4)no3)c(Cl)c2)c(=O)[nH]1 (stereo not given),128 °C
13,CCOC(=O)Nc1ccc(C(=O)CCC(=O)O)cc1,206 to 207 °C
14,CCOC(=O)c1cn(NCCC=O)c2nc(C)ccc2c1=O,175 to 178 °C
15,CCCc1ccc(S(=O)(=O)NCC2CCN(S(=O)(=O)c3ccc(CCC)cc3)CC2)cc1,158 to 159 °C
16,COc1cc2ncc(C#N)c(Nc3ccc(F)c(Cl)c3)c2cc1NC(=O)C=CCN1C(C)CCCC1C (stereo not given),120 to 122 °C
17,Cc1n[nH]cc1-c1cnc2[nH]c(=O)n(CC3CCOCC3)c2n1,222 to 224 °C
18,Cc1oc(-c2cccs2)nc1COc1ccc(CCCn2ccnc2)cc1,102 to 103 °C
19,C#Cc1cc(O)cc2nc(-c3ccc(O)cc3)oc12,229 to 231 °C
20,CC(=O)NCCNC(=O)c1ccc(Br)o1,175 to 176 °C
21,CC(C)c1cccc(C(C)C)c1NC(=O)CN1CCN(CCSc2nc3cccc(S(C)(=O)=O)c3o2)CC1,125 to 128 °C
22,C#CC1(O)C(C)CC2C3CCC4=CC(=O)CCC4(C)C3CCC21C (stereo not given),> 230 °C

row,Structure (SMILES),melting point
1,Cc1nc(COc2ccc3c(c2)c(SC(C)(C)C)c(CC(C)(C)C(=O)O)n3Cc2ccc(Cl)cc2)cs1,196 to 198 °C
2,CCOC(=O)C(NC=O)C(=O)Nc1ccc(Br)cc1C (stereo not given),174 to 176 °C
3,CCOC(=O)C1CCCN2CCC3c4cc(Cl)ccc4NC3C12 (stereo not given),124 °C
4,COc1ccc(NC(=O)Nc2c(Cl)cccc2Cl)cc1OC1CCCC1,203 to 204 °C
5,Clc1ccc(C2=CCN(Cc3n[nH]c4c(Cl)cccc34)CC2)cc1,171 to 173 °C
6,CCOC(=O)c1cn(-c2cc(NC(=O)OC(C)(C)C)c(F)cc2F)c2c(Cl)c(N)c(F)cc2c1=O,143 to 150 °C
7,Cc1ccc(-c2nc(CI)c(C)o2)cc1,104 to 105 °C
8,Cc1nc2sc3c(c2c2[nH][nH]c(=O)c12)CCN(C(=O)OC(C)(C)C)C3,> 300 °C
9,COc1ccc(N(N)c2ncnc3cc(Cl)ccc23)cc1,124 to 127 °C
10,COc1ccc(C2(C#Cc3cccc(-c4nnc(C)o4)c3)CCCC(=O)C2)cc1OC1CCCC1 (stereo not given),117 to 119 °C
11,CN(C(=O)C1CCC1)c1cccc(-c2ccnc3c(C(=O)c4ccccc4)cnn23)c1,168 to 170 °C
12,CC(C)OC(=O)C(O)C(CC1CCCCC1)NC(=O)C(Cc1c[nH]cn1)NC(=O)C(CC(=O)N1CCOCC1)Cc1cccc2ccccc12 (mixture of isomers),103 to 106 °C
13,Cc1ccc(-c2nnc[nH]2)cc1-c1cc2cnc(NC3CCOCC3)nc2n(C)c1=O,215 to 216 °C
14,CC(=C1SCCCS1)c1cccnc1,34 to 36 °C
15,CCOC(=O)OC1CCN(C(=O)Cn2c(=O)sc3ccc(Cl)cc32)CC1,196 to 197 °C
16,N#CCCC(C#N)CSc1ccc(Cl)c(Cl)c1 (stereo not given),53 to 55 °C
17,COc1cc(C(=O)O)ccc1Cc1cn(C)c2ccc(N(C(N)=O)C3CCCC3)cc12,203 to 206 °C
18,CC(=O)Oc1ccc2c(c1)C(=O)N(C(C)=O)C(C(Cl)(Cl)Cl)O2 (stereo not given),138 to 140 °C
19,NSc1nc(N)nc2c1ncn2C1OC(CO)C(O)C1O (stereo not given),190 to 192 °C
20,Cc1nc(N2CCCC(Cc3ccc(C(F)(F)F)cc3)C2=O)sc1C(=O)NCc1cccc(F)c1 (stereo not given),177 to 178 °C
21,CCn1nc(-c2ccc(Cl)cc2[N+](=O)[O-])c2c1CCCC2=O,184 °C
22,CCc1nc2c(N)nc3cc(OCCN4CCOCC4)ccc3c2n1CC1CCOCC1,230 to 232 °C

# The next lines start with the values.
row,melting point,Structure (SMILES)
1,130 °C,O=C(CN1C(=O)c2ccccc2C1=O)Nc1ccccc1C(=O)N1CCCc2ccccc21
2,72 to 74 °C,CC(=O)OC1SCC2C1N(Cc1ccccc1)C(=O)N2Cc1ccccc1 (stereo not given)
3,146 to 148 °C,O=C(O)c1nccc(-c2ccccc2)c1C(=O)O
4,195 °C,ON=C1CC(c2ccccc2)Cc2ccccc21 (stereo not given)
5,145 to 147 °C,CCc1[nH][nH]c(=O)c1Cc1ccc2ccccc2c1
6,168 to 170 °C,CC(C)c1cccc(C(C)C)c1NS(=O)(=O)CC(=O)N(Cc1ccccc1)C(C)C
7,122 °C,CC(=O)n1cc(Cn2ccnc2)c2ccccc21
8,148 to 150 °C,CC(C)(CC(=O)C(=O)Nc1cc2c(cc1Br)C(=O)OC2)c1ccccc1
9,158 to 161 °C,Cn1c(C(=O)O)cc2c(OC[C@@H](O)CN3CCC(c4ccc5ccccc5c4)CC3)cccc21
10,90 to 92 °C,O=C(Nc1ccc(N2CCSC2)c(F)c1)OCc1ccccc1
11,128 to 130 °C,O=C(Cc1ccccc1)NC1CN(OC(=O)c2ccccc2)C1=O (stereo not given)
12,179 to 181 °C,O=C(Nc1c(C(O)(C(F)(F)F)C(F)(F)F)ccc2ccccc12)c1cccc(Cl)c1
13,80 °C,CC(C)(C)OC(=O)NC(Cc1ccc(-c2cccc(CNCC(=O)c3ccccc3)c2)cc1)C(=O)O (stereo not given)
14,190 to 192 °C,O=C(O)Cc1ccc(NC(=O)C(COc2ccccc2)NS(=O)(=O)c2ccc(Cl)cc2)cc1 (racemic)
15,200 to 204 °C,CC(C)[C@@H](C(=O)N[C@@H](Cc1ccccc1)[C@@H](O)[C@H](O)[C@H](Cc1ccccc1)NC(=O)[C@H](C(C)C)N(C)C)N(C)C
16,210 °C,N=c1sc2cc(OC(F)(F)F)ccc2n1CCS(=O)c1ccccc1 (racemic)
17,171 to 172 °C,C=C(Cc1ccc(-c2cccc3cncn23)cc1)C(=O)O
18,109 to 110 °C,CCCOc1ccccc1C=C(C=O)C(C=O)=Cc1ccccc1OCCC
19,140 °C,COc1cc(CC(C#N)=CNc2ccccc2)c2c(c1OC)OC(C1CC1)C=C2 (racemic)
20,240 to 241 °C,Oc1cc(-c2ccc(Cl)cc2)[nH]n1
21,93 °C,CCc1ccc(C2CCCN2S(=O)(=O)c2ccc(F)cc2)cc1 (racemic)
22,146 °C,O=C1CC(c2ccccc2)N(C(=O)Cl)N1 (stereo not given)
23,201 to 203 °C,Cn1cc(C2=C(c3cccc(NC4COC(C)(C)OC4)c3)C(=O)NC2=O)c2ccccc21
24,140 to 142 °C,CC(C)(C)OC(=O)N1CCC(c2ccc(COc3ccc(S(C)(=O)=O)cc3)cn2)CC1
25,185 to 187 °C,COC1=CN=C(COC(c2ccccc2)(c2ccccc2)c2ccccc2)CC1=O
26,104 to 105 °C,CC(=O)Nc1ccc(SCCCCNS(=O)(=O)c2ccc(C)cc2)cc1
